According to article PMC4206749 (Toxicological Research, 2014):

Tested on: CHL cells (Chinese hamster lung fibroblast cell line)
Assay: In vitro chromosomal aberration assay
Format: cell-based
Conditions: 6~18 hr; for Gap / Numerical aberrations, PP + ER / Structural aberrations, Chromatid type, ctb / Structural aberrations, Chromatid type, cte / Structural aberrations, Chromosome type, csb / Structural aberrations, Chromosome type, cse / Structural aberrations, Others: 200 cells

For `Oc1ccc(-c2ccc3cc(O)ccc3c2)c(O)c1` [HS-1793, 4-(6-hydroxy-2-naphthyl)-1,3-benzenediol], the Growth index (S9 (+), 6.25 μg/ml) was 98%, the “Total frequency (+) Gap” value (S9 (+), 6.25 μg/ml) was 1.5% and the “Total frequency (−) Gap” value (S9 (+), 6.25 μg/ml) was 1%. For the same compound, the Gap (S9 (+), 6.25 μg/ml) was 1, the “Numerical aberrations, PP + ER” value (S9 (+), 6.25 μg/ml) was 0 and the “Structural aberrations, Chromatid type, ctb” value (“Structural aberrations … ctb” for short) (S9 (+), 6.25 μg/ml) was 1. For the same compound, the “Structural aberrations, Chromatid type, cte” value (shortened to “Structural aberrations … cte”) (S9 (+), 6.25 μg/ml) was 1, the “Structural aberrations, Chromosome type, csb” value (“Structural aberrations … csb” below) (S9 (+), 6.25 μg/ml) was 0 and the “Structural aberrations, Chromosome type, cse” value (shortened to “Structural aberrations … cse”) (S9 (+), 6.25 μg/ml) was 0. For the same compound, the “Structural aberrations, Others” value (S9 (+), 6.25 μg/ml) was 0, the Growth index (S9 (+), 12.5 μg/ml) was 95% and the “Total frequency (+) Gap” value (S9 (+), 12.5 μg/ml) was 1%. The “Total frequency (−) Gap” value (S9 (+), 12.5 μg/ml) was 0.5%, the Gap (S9 (+), 12.5 μg/ml) was 1 and the “Numerical aberrations, PP + ER” value (S9 (+), 12.5 μg/ml) was 0. The “Structural aberrations … ctb” value (S9 (+), 12.5 μg/ml) was 0, the “Structural aberrations … cte” value (S9 (+), 12.5 μg/ml) was 1 and the “Structural aberrations … csb” value (S9 (+), 12.5 μg/ml) was 0. The “Structural aberrations … cse” value (S9 (+), 12.5 μg/ml) was 0, the “Structural aberrations, Others” value (S9 (+), 12.5 μg/ml) was 0 and the Growth index (S9 (+), 25 μg/ml) was 89%. For the same compound, the “Total frequency (+) Gap” value (S9 (+), 25 μg/ml) was 3.5%, the “Total frequency (−) Gap” value (S9 (+), 25 μg/ml) was 2.5% and the Gap (S9 (+), 25 μg/ml) was 2. For the same compound, the “Numerical aberrations, PP + ER” value (S9 (+), 25 μg/ml) was 0, the “Structural aberrations … ctb” value (S9 (+), 25 μg/ml) was 2 and the “Structural aberrations … cte” value (S9 (+), 25 μg/ml) was 3. For the same compound, the “Structural aberrations … csb” value (S9 (+), 25 μg/ml) was 0, the “Structural aberrations … cse” value (S9 (+), 25 μg/ml) was 0 and the “Structural aberrations, Others” value (S9 (+), 25 μg/ml) was 0. For the same compound, the “Total frequency (+) Gap” value (S9 (+), 50 μg/ml) was 3%, the “Total frequency (−) Gap” value (S9 (+), 50 μg/ml) was 2.5% and the Gap (S9 (+), 50 μg/ml) was 1. For the same compound, the “Numerical aberrations, PP + ER” value (S9 (+), 50 μg/ml) was 0, the “Structural aberrations … ctb” value (S9 (+), 50 μg/ml) was 3 and the “Structural aberrations … csb” value (S9 (+), 50 μg/ml) was 0. The “Structural aberrations … cse” value (S9 (+), 50 μg/ml) was 0, the “Structural aberrations, Others” value (S9 (+), 50 μg/ml) was 0 and the Growth index (S9 (+), 100 μg/ml) was 71%. For the same compound, the “Total frequency (+) Gap” value (S9 (+), 100 μg/ml) was 1.5%, the “Total frequency (−) Gap” value (S9 (+), 100 μg/ml) was 0.5% and the Gap (S9 (+), 100 μg/ml) was 2. For the same compound, the “Numerical aberrations, PP + ER” value (S9 (+), 100 μg/ml) was 0, the “Structural aberrations … ctb” value (S9 (+), 100 μg/ml) was 0 and the “Structural aberrations … cte” value (S9 (+), 100 μg/ml) was 1. The “Structural aberrations … csb” value (S9 (+), 100 μg/ml) was 0, the “Structural aberrations … cse” value (S9 (+), 100 μg/ml) was 0 and the “Structural aberrations, Others” value (S9 (+), 100 μg/ml) was 0. For the same compound, the Growth index (S9 (−), 6.25 μg/ml) was 98%, the “Total frequency (+) Gap” value (S9 (−), 6.25 μg/ml) was 1.5% and the “Total frequency (−) Gap” value (S9 (−), 6.25 μg/ml) was 1%. The Gap (S9 (−), 6.25 μg/ml) was 1, the “Numerical aberrations, PP + ER” value (S9 (−), 6.25 μg/ml) was 0 and the “Structural aberrations … ctb” value (S9 (−), 6.25 μg/ml) was 0. The “Structural aberrations … cte” value (S9 (−), 6.25 μg/ml) was 2, the “Structural aberrations … csb” value (S9 (−), 6.25 μg/ml) was 0 and the “Structural aberrations … cse” value (S9 (−), 6.25 μg/ml) was 0. For the same compound, the “Structural aberrations, Others” value (S9 (−), 6.25 μg/ml) was 0, the Growth index (S9 (−), 12.5 μg/ml) was 90% and the “Total frequency (+) Gap” value (S9 (−), 12.5 μg/ml) was 2%. The “Total frequency (−) Gap” value (S9 (−), 12.5 μg/ml) was 1%, the Gap (S9 (−), 12.5 μg/ml) was 2 and the “Numerical aberrations, PP + ER” value (S9 (−), 12.5 μg/ml) was 0. The “Structural aberrations … ctb” value (S9 (−), 12.5 μg/ml) was 1, the “Structural aberrations … cte” value (S9 (−), 12.5 μg/ml) was 1 and the “Structural aberrations … csb” value (S9 (−), 12.5 μg/ml) was 0. For the same compound, the “Structural aberrations … cse” value (S9 (−), 12.5 μg/ml) was 0, the “Structural aberrations, Others” value (S9 (−), 12.5 μg/ml) was 0 and the Growth index (S9 (−), 25 μg/ml) was 84%. The “Total frequency (+) Gap” value (S9 (−), 25 μg/ml) was 2%, the “Total frequency (−) Gap” value (S9 (−), 25 μg/ml) was 1% and the Gap (S9 (−), 25 μg/ml) was 2. The “Numerical aberrations, PP + ER” value (S9 (−), 25 μg/ml) was 0, the “Structural aberrations … ctb” value (S9 (−), 25 μg/ml) was 0 and the “Structural aberrations … cte” value (S9 (−), 25 μg/ml) was 1. The “Structural aberrations … csb” value (S9 (−), 25 μg/ml) was 1, the “Structural aberrations … cse” value (S9 (−), 25 μg/ml) was 0 and the “Structural aberrations, Others” value (S9 (−), 25 μg/ml) was 0. For the same compound, the Growth index (S9 (−), 50 μg/ml) was 72%, the “Total frequency (+) Gap” value (S9 (−), 50 μg/ml) was 1.5% and the “Total frequency (−) Gap” value (S9 (−), 50 μg/ml) was 1%. For the same compound, the Gap (S9 (−), 50 μg/ml) was 1, the “Numerical aberrations, PP + ER” value (S9 (−), 50 μg/ml) was 0 and the “Structural aberrations … ctb” value (S9 (−), 50 μg/ml) was 1. For the same compound, the “Structural aberrations … cte” value (S9 (−), 50 μg/ml) was 1.
